From patent publication US10787442B2, “Modulators of indoleamine 2,3-dioxygenase” (GLAXOSMITHKLINE INTELLECTUAL PROPERTY DEVELOPMENT LIMITED, priority 2016, dated 2020) come the findings set out here.

In the data set the test system is human peripheral blood mononuclear cells (PBMC). In words: PBMC cytotoxicity assay (CellTiter-Glo). As to conditions: cytotoxicity in stimulated PBMC, recorded as pCC50. In kind it is cell-based. As for the experimental part: Compounds of the present invention were tested via high-throughput cellular assays utilizing detection of kynurenine via mass spectrometry and cytotoxicity as end-points. […] Compounds with IDO1 inhibitory properties decreased the amount of kynurenine produced by the cells via the tryptophan catabolic pathway. Cellular toxicity due to the effect of compound treatment was measured using CellTiter-Glo® reagent (CTG) (Promega Corporation, Madison, Wis.), which is based on luminescent detection of ATP, an indicator of metabolically active cells.
In preparation for the assays, test compounds were serially diluted 3-fold in DMSO from a typical top concentration of 1 mM or 5 mM and plated at 0.5 μL in 384-well, polystyrene, clear bottom, tissue culture treated plates with lids (Greiner Bio-One, Kremsmünster, Austria) to generate 11-point dose response curves. Low control wells (0% kynurenine or 100% cytotoxicity) contained either 0.5 μL of DMSO in the presence of unstimulated (−IFN-γ/−LPS) PBMCs for the mass spectrometry assay or 0.5 μL of DMSO in the absence of cells for the cytotoxicity assay, and high control wells (100% kynurenine or 0% cytotoxicity) contained 0.5 μL of DMSO in the presence of stimulated (+IFN-γ/+LPS) PBMCs for both the mass spectrometry and cytotoxicity assays.
Frozen stocks of PBMCs were washed and recovered in RPMI 1640 medium (Thermo Fisher Scientific, Inc., Waltham, Mass.) supplemented with 10% v/v heat-inactivated fetal bovine serum (FBS) (Thermo Fisher Scientific, Inc., Waltham, Mass.), and 1× penicillin-streptomycin antibiotic solution (Thermo Fisher Scientific, Inc., Waltham, Mass.). The cells were diluted to 1,000,000 cells/mL in the supplemented RPMI 1640 medium. 50 μL of either the cell suspension, for the mass spectrometry assay, or medium alone, for the cytotoxicity assay, were added to the low control wells, on the previously prepared 384-well compound plates, resulting in 50,000 cells/well or 0 cells/well respectively. IFN-γ and LPS were added to the remaining cell suspension at final concentrations of 100 ng/ml and 50 ng/ml respectively, and 50 μL of the stimulated cells were added to all remaining wells on the 384-well compound plates. The plates, with lids, were then placed in a 37° C., 5% CO2 humidified incubator for 2 days.
Following incubation, the 384-well plates were removed from the incubator and allowed to equilibrate to room temperature for 30 minutes. For the cytotoxicity assay, CellTiter-Glo® was prepared according to the manufacturer's instructions, and 40 μL were added to each plate well. After a twenty minute incubation at room temperature, luminescence was read on an EnVision® Multilabel Reader (PerkinElmer Inc., Waltham, Mass.). For the mass spectrometry assay, 10 μL of supernatant from each well of the compound-treated plates were added to 40 μL of acetonitrile, containing 10 μM of an internal standard for normalization, in 384-well, polypropylene, V-bottom plates (Greiner Bio-One, Kremsmünster, Austria) to extract the organic analytes. Following centrifugation at 2000 rpm for 10 minutes, 10 μL from each well of the acetonitrile extraction plates were added to 90 μL of sterile, distilled H2O in 384-well, polypropylene, V-bottom plates for analysis of kynurenine and the internal standard on the RapidFire 300 (Agilent Technologies, Santa Clara, Calif.) and 4000 QTRAP MS (SCIEX, Framingham, Mass.). MS data were integrated using Agilent Technologies' RapidFire Integrator software, and data were normalized for analysis as a ratio of kynurenine to the internal standard.

The structures appear in SMILES notation. A value given as a limit tells only on which side of the number the result lay.

As to `CC(C)CN(c1ncc([C@H](C)CC(=O)O)cc1Nc1nc(C(C)C)ns1)C1CCOCC1` [Example 8], the “PBMC_TOX PXC50” value was under 5.0.
Then `C[C@H](CC(=O)O)c1cnc(N(CC2CC2)C2CCOCC2)c(Nc2ccc(Cl)cn2)c1` [Example 9, (R)-3-(5-((5-chloropyridin-2-yl)amino)-6-((cyclopropylmethyl)(tetrahydro-2H-pyran-4-yl)amino)pyridin-3-yl)butanoic acid], with under 5.0; and `CC(C)CN(c1ncc([C@H](C)CC(=O)O)cc1Nc1n[nH]c(C(F)(F)F)n1)C1CCCCC1` [Example 10, (R)-3-(6-(cyclohexyl(isobutyl)amino)-5-((5-(trifluoromethyl)-1H-1,2,4-triazol-3-yl)amino)pyridin-3-yl)butanoic acid], with under 5.0; and `CC(C)CN(c1ncc([C@H](C)CC(=O)O)cc1Nc1nc(C(F)(F)F)ns1)C1CCCCC1` [Example 11, (R)-3-(6-(cyclohexyl(isobutyl)amino)-5-((3-(trifluoromethyl)-1,2,4-thiadiazol-5-yl)amino)pyridin-3-yl)butanoic acid], with under 5.0.
Then `CC(C)CN(c1ncc([C@H](C)CC(=O)O)cc1Nc1nc(Cl)ns1)C1CCCCC1` [Example 12, (R)-3-(5-((3-chloro-1,2,4-thiadiazol-5-yl)amino)-6-(cyclohexyl(isobutyl)amino)pyridin-3-yl)butanoic acid], with under 5.0; and `CC(C)CN(c1ncc([C@H](C)CC(=O)O)cc1Nc1ccc(Cl)cn1)C1CCCCC1` [Example 13, (R)-3-(5-((5-chloropyridin-2-yl)amino)-6-(cyclohexyl(isobutyl)amino)pyridin-3-yl)butanoic acid], with under 5.0; and `CC(C)CN(c1ncc([C@H](C)CC(=O)O)cc1Nc1nc(C(C)C)ns1)C1CCCCC1` [Example 14, (R)-3-(6-(cyclohexyl(isobutyl)amino)-5-((3-isopropyl-1,2,4-thiadiazol-5-yl)amino)pyridin-3-yl)butanoic acid], with under 5.0.
To `COCc1nsc(Nc2cc([C@H](C)CC(=O)O)cnc2N(CC(C)C)C2CCCCC2)n1` [Example 15, (R)-3-(6-(cyclohexyl(isobutyl)amino)-5-((3-(methoxymethyl)-1,2,4-thiadiazol-5-yl)amino)pyridin-3-yl)butanoic acid] belongs under 5.5.
For `Cc1nsc(Nc2cc([C@H](C)CC(=O)O)cnc2N(CC(C)C)C2CCCCC2)n1` [Example 16, (R)-3-(6-(cyclohexyl(isobutyl)amino)-5-((3-methyl-1,2,4-thiadiazol-5-yl)amino)pyridin-3-yl)butanoic acid], the “PBMC_TOX PXC50” value is recorded as under 5.2.
To `CC(C)CN(c1ncc([C@H](C)CC(=O)O)cc1Nc1ccc(Cl)nc1)C1CCC(F)(F)CC1` [Example 17, (R)-3-(5-((6-chloropyridin-3-yl)amino)-6-((4,4-difluorocyclohexyl)(isobutyl)amino)pyridin-3-yl)butanoic acid] belongs under 5.0.
Then `CC(C)CN(c1ncc([C@H](C)CC(=O)O)cc1Nc1ccc(Cl)cn1)C1CCC(F)(F)CC1` [Example 18, (R)-3-(5-((5-chloropyridin-2-yl)amino)-6-((4,4-difluorocyclohexyl) (isobutyl)amino)pyridin-3-yl)butanoic acid], with under 5.0.
For the compound `CC(C)CN(c1ncc([C@H](C)CC(=O)O)cc1Nc1ccc(Cl)nc1)C1CC(F)(F)C1` [Example 19, (R)-3-(5-((6-chloropyridin-3-yl)amino)-6-((3,3-difluorocyclobutyl)(isobutyl)amino)pyridin-3-yl) butanoic acid], the “PBMC_TOX PXC50” value is listed as under 5.0.
In the case of `CO[C@H]1CC[C@@H](N(CC(C)C)c2ncc([C@H](C)CC(=O)O)cc2Nc2nc(Cl)ns2)CC1` [Example 21, (R)-3-(5-((3-chloro-1,2,4-thiadiazol-5-yl)amino)-6-(isobutyl((1s,4S)-4-methoxycyclohexyl)amino)pyridin-3-yl)butanoic acid], the “PBMC_TOX PXC50” value is given as under 5.0.
To `CO[C@H]1CC[C@@H](N(CC(C)C)c2ncc([C@H](C)CC(=O)O)cc2Nc2nc(C(F)(F)F)ns2)CC1` [Example 22, (R)-3-(6-(isobutyl((1s,4S)-4-methoxycyclohexyl)amino)-5-((3-(trifluoromethyl)-1,2,4-thiadiazol-5-yl)amino)pyridin-3-yl) butanoic acid] belongs under 5.4.
Then `CO[C@H]1CC[C@@H](N(CC(C)C)c2ncc([C@H](C)CC(=O)O)cc2Nc2ccc(C#N)nc2)CC1` [Example 23, (R)-3-(5-((6-cyanopyridin-3-yl)amino)-6-(isobutyl((1s,4S)-4-methoxycyclohexyl)amino)pyridin-3-yl)butanoic acid], with under 5.0; and `CO[C@H]1CC[C@@H](N(CC(C)C)c2ncc([C@H](C)CC(=O)O)cc2Nc2ccc(Cl)cn2)CC1` [Example 24, (R)-3-(5-((5-chloropyridin-2-yl)amino)-6-(isobutyl((1s,4S)-4-methoxycyclohexyl)amino)pyridin-3-yl)butanoic acid], with under 5.0; and `CO[C@H]1CC[C@@H](N(CC(C)C)c2ncc([C@H](C)CC(=O)O)cc2Nc2ccc(C#N)cn2)CC1` [Example 25, (R)-3-(5-((5-cyanopyridin-2-yl)amino)-6-(isobutyl((1s,4S)-4-methoxycyclohexyl)amino)pyridin-3-yl)butanoic acid], with under 5.0.
To `CO[C@H]1CC[C@H](N(CC(C)C)c2ncc([C@H](C)CC(=O)O)cc2Nc2nc(C(F)(F)F)ns2)CC1` [Example 26, (R)-3-(6-(isobutyl((1r,4R)-4-methoxycyclohexyl)amino)-5-((3-(trifluoromethyl)-1,2,4-thiadiazol-5-yl)amino)pyridin-3-yl)butanoic acid] belongs under 5.0.
On to `CO[C@H]1CC[C@H](N(CC(C)C)c2ncc([C@H](C)CC(=O)O)cc2Nc2ccc(Cl)cn2)CC1` [Example 27, (R)-3-(5-((5-chloropyridin-2-yl)amino)-6-(isobutyl((1r,4R)-4-methoxycyclohexyl)amino)pyridin-3-yl)butanoic acid], for which the “PBMC_TOX PXC50” value is on record as under 5.0.
Regarding `CC(C)CN(c1ncc([C@H](C)CC(=O)O)cc1Nc1nc(C(F)(F)F)ns1)[C@H]1CC[C@H](O)CC1` [Example 28, (R)-3-(6-(((1r,4R)-4-hydroxycyclohexyl)(isobutyl)amino)-5-((3-(trifluoromethyl)-1,2,4-thiadiazol-5-yl)amino)pyridin-3-yl)butanoic acid], the “PBMC_TOX PXC50” value is on record as under 5.0.
Turning to `CC(C)CN(c1ncc(C(C)CC(=O)O)cc1Nc1nc(C2CC2)ns1)C1CCOCC1` (stereo not drawn) [Example 37, 3-{5-[(3-cyclopropyl-1,2,4-thiadiazol-5-yl)amino]-6-[(2-methylpropyl)(oxan-4-yl)amino]pyridin-3-yl}butanoic acid], the “PBMC_TOX PXC50” value is under 5.0.
On to `CC(C)CN(c1ncc([C@H](C)CC(=O)O)cc1Nc1nnc(C2CC2)s1)C1CCOCC1` [Example 38, (3R)-3-{5-[(5-cyclopropyl-1,3,4-thiadiazol-2-yl)amino]-6-[(2-methylpropyl)(oxan-4-yl)amino]pyridin-3-yl}butanoic acid], for which the “PBMC_TOX PXC50” value is on record as under 5.0.
To `CC(C)CN(c1ncc([C@H](C)CC(=O)O)cc1Nc1nc(Cl)ns1)C1CCOCC1` [Example 39, (3R)-3-{5-[(3-chloro-1,2,4-thiadiazol-5-yl)amino]-6-[(2-methylpropyl)(oxan-4-yl)amino]pyridin-3-yl}butanoic acid] belongs under 5.0; to `CC(C)CN(c1ncc([C@H](C)CC(=O)O)cc1Nc1nc(C2CC2)ns1)C1CCOCC1` [Example 41, (3R)-3-{5-[(3-cyclopropyl-1,2,4-thiadiazol-5-yl)amino]-6-[(2-methylpropyl)(oxan-4-yl)amino]pyridin-3-yl}butanoic acid], under 5.0.
